Measurements: PMC12058161, “The plant matrix of Artemisia annua L. for the treatment of malaria: Pharmacodynamic and pharmacokinetic studies” (PLOS One, 2025)
Where “and” joins values, the source holds several entries; their conditions need not be identical. Equal values may be shown once. Read-outs that look alike come from different tables or passages of the source.

Columns and labels:
[1] = system: Plasmodium yoelii (P. yoelii); experiment: Peters' four-day inhibition method, P. yoelii murine malaria model; format: in vivo, ICR mice; settings: individual mice
Method: In vivo evaluation of antimalarial activity was performed using the classical Peters’ four-day inhibition method. A murine malaria model was constructed by intraperitoneal injection of 5.00 × 10^7 Plasmodium yoelii (P. yoelii)- or Plasmodium berghei (P. berghei)-infected erythrocytes. […] Mice were gavaged once 4 hours after infection with medicated soybean oil or the test drug (gavage standard was 0.20 mL/10 g), and the drug was administered orally for 4 consecutive days. Four hours after the last dose, blood was collected from the tail tip of the mice to make a thin blood smear. The smear was air-dried, fixed in methanol, stained with Giemsa for 30 minutes, then rinsed with distilled water, air-dried at room temperature, and visualized for malaria infection under a microscope (OLYMPUS BX43) at 100x oil immersion. The inhibition ratio (%) for each group was calculated using the following equations:
Inhibitionratio(%)=(infectionratiocontrolgroup−infectionratiotreatmentgroup)/infectionratiocontrolgroup×100

Caco-2 cells = experiment: Cytotoxicity in Caco-2 cells, CCK-8 assay; format: cell-based, human; settings: for Cell survival rate%: mean; for cck-8 mean (survival fraction): mean of 6
Procedure, shortened: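 Caco-2 cells, pre-grown 48 h, were exposed to compounds for 48 h at 37 °C with 0.05% v/v DMSO final. Viability was measured by CCK-8 (2 h, absorbance 450 nm) relative to negative-control cells.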

[2] = Stability of the five compounds in SD rat plasma (QC samples, UHPLC-ESI-MS/MS); format: in vitro ADME; settings: for 3 freeze-thaw cycles mean ± SD / 7 days at -80°C mean ± SD / Room temperature 24h mean ± SD: SD rat plasma QC sample; for stability, Accuracy (measured versus nominal concentration) / stability, mean ± SD (measured concentration): SD rat plasma, n=5
[3] = male, Sprague Dawley, rat, in vivo
in vivo = settings: male, Sprague Dawley, rat, po; for MRT last: MRT(0-t); for MRT inf: MRT(0-∞)
[4] = Caco-2, concentration 10 μmol/L
[5] = Caco-2, concentration 20 μmol/L
[6] = Caco-2, concentration 40 μmol/L
[7] = Caco-2, concentration 80 μmol/L
[8] = nominal 40 ng/mL, 3 freeze-thaw cycles
[9] = nominal 40 ng/mL, 7 days at -80°C
[10] = nominal 1000 ng/mL, 3 freeze-thaw cycles
[11] = nominal 1000 ng/mL, 7 days at -80°C
[12] = nominal 5000 ng/mL, 3 freeze-thaw cycles
[13] = nominal 5000 ng/mL, 7 days at -80°C
[14] = nominal 40 ng/mL, Room temperature 24h
[15] = nominal 1000 ng/mL, Room temperature 24h
[16] = nominal 5000 ng/mL, Room temperature 24h

C[C@@H]1CC[C@H]2[C@@H](C)C(=O)O[C@@H]3O[C@@]4(C)CC[C@@H]1[C@]32OO4 [ART, Artemisinin, reference compound]
parasitemia% ([1]; 5.68 mg/kg): 70.2912% and 67.0337% and 68.4147% and 69.5326% and 69.0526%
parasitemia% ([1]; 11.368 mg/kg): 34.1852% and 49.4174% and 42.0754% and 41.1875% and 34.5379%
parasitemia% ([1]; 22.736 mg/kg): 1.979% and 6.804% and 2.98% and 0.248% and 3.003%
Cell survival rate%, single replicate (Caco-2 cells; Caco-2, 5μmol/L): 82.52% and 83.77% and 87.9% and 78.48% and 85.79% and 77.82%
Cell survival rate%, single replicate (Caco-2 cells; Caco-2, 10μmol/L): 91.57% and 89.14% and 82.1% and 68.6% and 78.83% and 84.29%
Cell survival rate%, single replicate (Caco-2 cells; Caco-2, 20μmol/L): 80.46% and 80.92% and 80.32% and 81.46% and 82.88% and 85.89%
Cell survival rate%, single replicate (Caco-2 cells; Caco-2, 40μmol/L): 70.44% and 87.86% and 77.89% and 75.6% and 92.55% and 87.29%
Cell survival rate%, single replicate (Caco-2 cells; Caco-2, 80μmol/L): 82.12% and 82.82% and 84.32% and 77.9% and 76.8% and 84.01%
cck-8 cell survival as fraction, single replicate (Caco-2 cells; Caco-2, concentration 5 μmol/L): 0.8252 and 0.8377 and 0.879 and 0.7848 and 0.8579 and 0.7782
Cell survival rate% (Caco-2 cells; Caco-2, concentration 5 μmol/L): 82.71%
cck-8 mean (survival fraction) (Caco-2 cells; Caco-2, concentration 5 μmol/L): 0.827
cck-8 cell survival as fraction, single replicate (Caco-2 cells; [4]): 0.9157 and 0.8914 and 0.821 and 0.686 and 0.7883 and 0.8429
Cell survival rate% (Caco-2 cells; [4]): 82.42%
cck-8 mean (survival fraction) (Caco-2 cells; [4]): 0.824
cck-8 cell survival as fraction, single replicate (Caco-2 cells; [5]): 0.8046 and 0.8092 and 0.8032 and 0.8146 and 0.8288 and 0.8589
Cell survival rate% (Caco-2 cells; [5]): 81.99%
cck-8 mean (survival fraction) (Caco-2 cells; [5]): 0.820
cck-8 cell survival as fraction, single replicate (Caco-2 cells; [6]): 0.7044 and 0.8786 and 0.7789 and 0.756 and 0.9255 and 0.8729
Cell survival rate% (Caco-2 cells; [6]): 81.94%
cck-8 mean (survival fraction) (Caco-2 cells; [6]): 0.819
cck-8 cell survival as fraction, single replicate (Caco-2 cells; [7]): 0.8212 and 0.8282 and 0.8432 and 0.779 and 0.768 and 0.8401
Cell survival rate% (Caco-2 cells; [7]): 81.33%
cck-8 mean (survival fraction) (Caco-2 cells; [7]): 0.813
Stability in plasma, measured concentration (mean ± SD) ([2]; 3 freeze-thaw cycles, QC concentration 40 ng/mL): 38.5 ± 2.35 ng/mL
Stability in plasma, measured concentration (mean ± SD) ([2]; 3 freeze-thaw cycles, QC concentration 1000 ng/mL): 1053 ± 29.9 ng/mL
Stability in plasma, measured concentration (mean ± SD) ([2]; 3 freeze-thaw cycles, QC concentration 5000 ng/mL): 4629 ± 113 ng/mL
Stability in plasma, measured concentration (mean ± SD) ([2]; 7 days at -80°C, QC concentration 40 ng/mL): 40.3 ± 0.80 ng/mL
Stability in plasma, measured concentration (mean ± SD) ([2]; 7 days at -80°C, QC concentration 1000 ng/mL): 1051 ± 29.5 ng/mL
Stability in plasma, measured concentration (mean ± SD) ([2]; 7 days at -80°C, QC concentration 5000 ng/mL): 4673 ± 65.9 ng/mL
Stability, measured concentration, mean ± SD ([2]; QC sample 40 ng/mL, 3 freeze-thaw cycles): 38.5 ± 2.35 ng/mL
Stability, measured concentration, mean ± SD ([2]; QC sample 40 ng/mL, 7 days at -80°C): 40.3 ± 0.80 ng/mL
Stability, measured concentration, mean ± SD ([2]; QC sample 40 ng/mL, Room temperature 24h): 41.1 ± 1.49 ng/mL
Stability, measured concentration, mean ± SD ([2]; QC sample 1000 ng/mL, 3 freeze-thaw cycles): 1053 ± 29.9 ng/mL
Stability, measured concentration, mean ± SD ([2]; QC sample 1000 ng/mL, 7 days at -80°C): 1051 ± 29.5 ng/mL
Stability, measured concentration, mean ± SD ([2]; QC sample 1000 ng/mL, Room temperature 24h): 1070 ± 40.9 ng/mL
Stability, measured concentration, mean ± SD ([2]; QC sample 5000 ng/mL, 3 freeze-thaw cycles): 4629 ± 113 ng/mL
Stability, measured concentration, mean ± SD ([2]; QC sample 5000 ng/mL, 7 days at -80°C): 4673 ± 65.9 ng/mL
Stability, measured concentration, mean ± SD ([2]; QC sample 5000 ng/mL, Room temperature 24h): 5229 ± 418 ng/mL
Stability in plasma, measured concentration (mean ± SD) ([2]; Room temperature 24h, QC concentration 40 ng/mL): 41.1 ± 1.49 ng/mL
Stability in plasma, measured concentration (mean ± SD) ([2]; Room temperature 24h, QC concentration 1000 ng/mL): 1070 ± 40.9 ng/mL
Stability in plasma, measured concentration (mean ± SD) ([2]; Room temperature 24h, QC concentration 5000 ng/mL): 5229 ± 418 ng/mL
3 freeze-thaw cycles mean ± SD [2, 8]: 38.5 ± 2.35 ng/mL
7 days at -80°C mean ± SD [2, 9]: 40.3 ± 0.80 ng/mL
Room temperature 24h mean ± SD ([2]; nominal 40 ng/mL): 41.1 ± 1.49 ng/mL
3 freeze-thaw cycles mean ± SD [2, 10]: 1053 ± 29.9 ng/mL
7 days at -80°C mean ± SD [2, 11]: 1051 ± 29.5 ng/mL
Room temperature 24h mean ± SD ([2]; nominal 1000 ng/mL): 1070 ± 40.9 ng/mL
3 freeze-thaw cycles mean ± SD [2, 12]: 4629 ± 113 ng/mL
7 days at -80°C mean ± SD [2, 13]: 4673 ± 65.9 ng/mL
Room temperature 24h mean ± SD ([2]; nominal 5000 ng/mL): 5229 ± 418 ng/mL
stability, Accuracy (measured versus nominal concentration) [2, 8]: 96.14%
stability, mean ± SD (measured concentration) [2, 8]: 38.5 ± 2.35 ng/mL and 38.46 ng/mL
stability, Accuracy (measured versus nominal concentration) [2, 9]: 100.80%
stability, mean ± SD (measured concentration) [2, 9]: 40.3 ± 0.80 ng/mL and 40.32 ng/mL
stability, Accuracy (measured versus nominal concentration) [2, 14]: 102.70%
stability, mean ± SD (measured concentration) [2, 14]: 41.1 ± 1.49 ng/mL and 41.08 ng/mL
stability, Accuracy (measured versus nominal concentration) [2, 10]: 105.28%
stability, mean ± SD (measured concentration) [2, 10]: 1053 ± 29.9 ng/mL and 1052.79 ng/mL
stability, Accuracy (measured versus nominal concentration) [2, 11]: 105.14%
stability, mean ± SD (measured concentration) [2, 11]: 1051 ± 29.5 ng/mL and 1051.42 ng/mL
stability, Accuracy (measured versus nominal concentration) [2, 15]: 106.95%
stability, mean ± SD (measured concentration) [2, 15]: 1070 ± 40.9 ng/mL and 1069.53 ng/mL
stability, Accuracy (measured versus nominal concentration) [2, 12]: 92.59%
stability, mean ± SD (measured concentration) [2, 12]: 4629 ± 113 ng/mL and 4629.47 ng/mL
stability, Accuracy (measured versus nominal concentration) [2, 13]: 93.45%
stability, mean ± SD (measured concentration) [2, 13]: 4673 ± 65.9 ng/mL and 4672.51 ng/mL
stability, Accuracy (measured versus nominal concentration) [2, 16]: 104.57%
stability, mean ± SD (measured concentration) [2, 16]: 5229 ± 418 ng/mL and 5228.53 ng/mL
plasma concentration (plasma concentration-time curve) ([3]; 0.08 h): 180.137
plasma concentration (plasma concentration-time curve) ([3]; 0.5 h): 247.263
plasma concentration (plasma concentration-time curve) ([3]; 1 h): 173.84
plasma concentration (plasma concentration-time curve) ([3]; 1.5 h): 81.963
plasma concentration (plasma concentration-time curve) ([3]; 2 h): 51.011
plasma concentration (plasma concentration-time curve) ([3]; 3 h): 33.992
plasma concentration (plasma concentration-time curve) ([3]; 4 h): 27.897
Vz ([3]; po, 100 mg/kg): 0.08 ± 0.03 L
CL ([3]; po, 352 mg/kg): 0.032 ± 0.018 L/h
Vz ([3]; po, 352 mg/kg): 0.061 ± 0.008 L
AUC(0-inf) (in vivo; 100 mg/kg): 418 ± 133 ng·h/mL
AUC(0-t) (in vivo; 100 mg/kg): 386 ± 128 ng·h/mL
MRT last (in vivo; 100 mg/kg): 1.18 ± 0.255 h
MRT inf (in vivo; 100 mg/kg): 1.67 ± 0.333 h
AUC(0-inf) (in vivo; 352 mg/kg): 816 ± 383 ng·h/mL
AUC(0-t) (in vivo; 352 mg/kg): 763 ± 345 ng·h/mL
Cmax (in vivo; 352 mg/kg, Cmax): 513 ± 186 ng/mL
MRT last (in vivo; 352 mg/kg): 1.71 ± 0.513 h
MRT inf (in vivo; 352 mg/kg): 2.54 ± 0.785 h
Tmax (in vivo; 352 mg/kg, Tmax): 0.388 ± 0.328 h
